The values that follow are results of earlier work, collected in patent US8629128B2, “Vitamin formulation” (priority 2005, dated 2014).

The structures appear in SMILES notation.

For data set [1], the system named is normal and malignant keratinocytes. The conditions noted are these: normal and malignant keratinocytes in culture.
For data set [2] the following is noted: oxidizing agents and sunlight.

Regarding `C=C1/C(=C\C=C2/CCC[C@]3(C)C([C@H](C)/C=C/[C@@H](O)C4CC4)CC[C@@H]23)C[C@@H](O)C[C@@H]1O` (stereo partly drawn) [Calcipotriene, (5Z,7E,22E,24S)-24-cyclopropyl-9,10-secochola-5,7,10(19), 22 tetraene-1α,3β,24-triol], in data set [1], the “induction of differentiation of keratinocytes” value is “induces the differentiation” and the “inhibition of proliferation of keratinocytes” value is given as “inhibits proliferation”.
As for `CC1=C(/C=C/C(C)=C/C=C/C(C)=C/C(=O)O)C(C)(C)CCC1` [Tretinoin, (all-E)-3,7-dimethyl-9-(2,6,6-trimethyl-1-cyclohexen-1-yl)-2,4,6,8-nonatetraenoic acid], the stability of tretinoin entry in data set [2] is “unstable in the presence of oxidizing agents and sunlight”.
Consider `C=C1/C(=C\C=C2/CCC[C@]3(C)[C@@H]([C@H](C)CCCC(C)(C)O)CC[C@@H]23)C[C@@H](O)C[C@@H]1O` [calcitriol, 1,25-dihydroxy Vitamin D3], for which the “effect on calcium metabolism” value in the data set with calcium metabolism is “potent effect on calcium metabolism”.
